Measured values as given in paper PMC12499601 (Pulmonary pharmacology & therapeutics, 2024).
Values joined by “and” are separate entries in the source; they are usually repeats but may differ in a detail not shown here. Equal entries are not always repeated. Where two headings read alike, the source gives them in different places.

Columns and labels:
16HBE cells = test: Uptake of metabolites into 16HBE cells at ALI, LC-MS/MS of cellular lysate; assay type: in vitro ADME, human; conditions: for mean concentration detected in the cells: 16HBE at ALI, 1000nM of the compound in basolateral media, 48 hours; for crossing of the plasma membrane of airway epithelial cells: 16HBE in vitro model
CFTR = conditions: cited from earlier work
[1] = system: human nasal epithelial cells; test: Capillary plasma versus nasal epithelial cell concentrations; assay type: in vivo; conditions: nasal epithelial cell lysate of participants taking ivacaftor
[2] = pwCF; cited from earlier work
HNEs, HBEs, and CFBEs = assay type: in vitro ADME, human; conditions: ALI cultures, 1000nM of Iva basolateral, 48 hours; for metabolite detected in apical or basolateral media: media prior to cell lysis (data not shown)
Metabolite:parent ratio = assay type: in vivo, human; conditions: capillary plasma, metabolite:Iva, 12 hour dosing interval
[3] = assay type: in vivo, human; conditions: capillary plasma, pwCF, ivacaftor 150mg twice daily steady state, n = 8; for Cmax / half-life: human, oral, 150 mg
5-HT2C receptor = conditions: cited from earlier work
dopamine transporter = conditions: cited from earlier work
β3-adrenergic receptor = conditions: cited from earlier work
δ-opioid receptor = conditions: cited from earlier work
CYP3A4 = conditions: in vitro; cited from earlier work
[4] = assay type: in vivo, human; conditions: plasma of a participant taking ivacaftor
nasal brushings lysate = conditions: pwCF; cited from earlier work

| Compound | mean concentration detected in the cells (16HBE cells) | crossing of the plasma membrane of airway epithelial cells (16HBE cells) | activity relative to parent Iva (CFTR) | potentiation activity relative to that of Iva (CFTR) | Cavg, venous plasma [2] [ng/mL] | metabolite detected in cells treated with Iva (HNEs, HBEs, and CFBEs; cell lysate) | metabolite detected in apical or basolateral media (HNEs, HBEs, and CFBEs) | mean metabolite:parent ratio (MPR) (Metabolite:parent ratio) | Cavg, Mean (SD) [3] | Cavg, Median (min, max) [3] | Cmax, Mean (SD) [3] | Cmax, Median (min, max) [3] | Cmin, Mean (SD) [3] | Cmin, Median (min, max) [3] | T1/2, Mean (SD) [3] | T1/2, Median (min, max) [3] | Tmax, Mean (SD) [3] | Tmax, Median (min, max) [3] | effect on CYP3A4 activity (CYP3A4) | further results |
| --- | --- | --- | --- | --- | --- | --- | --- | --- | --- | --- | --- | --- | --- | --- | --- | --- | --- | --- | --- | --- |
| CC(C)(C)c1cc(C(C)(C)C(=O)O)c(O)cc1NC(=O)c1c[nH]c2ccccc2c1=O [M6-Iva, ivacaftor carboxylate] | 15 ng/ml and 0.04 μM | does not readily cross the plasma membrane | inactive metabolite | 1/50 | 3821 | No M1-Iva and M6-Iva were detected | no M1-Iva and M6-Iva were detected | 1.6 | 797 (430) ng/mL | 842 (231, 1418) ng/mL | 927 (456) ng/mL | 918 (265, 1630) ng/mL | 522 (365) ng/mL | 527 (5.8, 1070) ng/mL | 8.8 (6.6) h | 8.8 (4.2, 13.5) h | 6.9 (3.7) h | 8 (4, 10) h |  | average concentration in the cellular lysate (16HBE cells; 16HBE, 5000nM of the compound, 48 hours (data not shown)): 81 ng/ml and 0.19 μM; detection in cellular samples [1]: found only in one cellular sample |
| CC(C)(C)c1cc(C(C)(C)C)c(NC(=O)c2c[nH]c3ccccc3c2=O)cc1O [Iva, ivacaftor] |  |  |  |  |  |  |  |  | 532 (343) ng/mL | 416(221, 1206) ng/mL |  |  | 352 (245) ng/mL | 287 (113, 813) ng/mL |  |  |  | 5 (4, 6) h | reduce CYP3A4 activity | affinity (5-HT2C receptor): significant affinity; affinity (dopamine transporter): significant affinity; affinity (β3-adrenergic receptor): significant affinity; affinity (δ-opioid receptor): significant affinity; parent compound detected in cells (HNEs, HBEs, and CFBEs; cell lysate): detected in all the cell types; Cmax ([3]; Mean (SD)): 744 ng/mL; Cmax ([3]; Median (min, max)): 552 ng/mL; half-life ([3]; T1/2, Mean (SD)): 474 min; half-life ([3]; T1/2, Median (min, max)): 402 min |
| ivacaftor hydrate [Iva-hydrate] |  |  |  |  |  |  |  |  |  |  |  |  |  |  |  |  |  |  |  | detection in plasma (qualitative) [4]: small peaks |
| CC(C)(C)c1cc(C(C)(C)CO)c(O)cc1NC(=O)c1c[nH]c2ccccc2c1=O [M1-Iva, hydroxymethyl ivacaftor] | 1000 ng/ml and 2.5 μM | readily enters the airway epithelial cells | 1/6 | 1/6 | 3156 | No M1-Iva and M6-Iva were detected | no M1-Iva and M6-Iva were detected | 1.5 | 726 (365) ng/mL | 607 (256, 1170) ng/mL | 1036 (520) ng/mL | 913 (402, 1750) ng/mL | 501 (228) ng/mL | 475 (55, 839) ng/mL | 9.2 (4.29) h | 8.7 (3.35, 16.4) h | 5.3 (0.7) h | 5 (4, 6) h | stronger inhibition | mean concentration in nasal brushings lysate (nasal brushings lysate): 696 ng/mL |
